Converted amounts (≈) assume the structure as drawn. Read-outs that look alike come from different tables or passages of the source.
Assays:
anti-pseudomonal = settings: in words, prior art; cited from earlier work
staphylococci = settings: in words, prior art; cited from earlier work
Salmonella typhimurium = assay: MIC, in vitro agar dilution method; assay type: cell-based; settings: Salmonella enterica
Description: (§1) The MICs of the new cephalosporins of the present invention against Gram-positive and Gram-negative bacteria were determined by an in vitro agar dilution method. For comparisons, the MIC values of ceftazidime are also listed.
(§2) In vitro antimicrobial activity of the cephalosporins (l) (MIC:
S.t., Salmonella typhimurium;

[1] = system: Streptococcus pyogenes 308 A; assay: MIC, in vitro agar dilution method; assay type: cell-based
Description: as §1, §2
S.p.1, Streptococcus pyogenes 308 A;

Enterobacter cloacae P99 = settings: in words, prior art; cited from earlier work
[2] = system: Staphylococcus aureus 503; assay: MIC, in vitro agar dilution method; assay type: cell-based
Description: as §1, §2
S.a.3, Staphylococcus aureus 503;

[3] = system: Pseudomonas aeruginosa 9027; assay: MIC, in vitro agar dilution method; assay type: cell-based
Description: as §1, §2
P.a.1, Pseudomonas aeruginosa 9027;

[4] = system: Klebsiella aerogenes 1552 E; assay: MIC, in vitro agar dilution method; assay type: cell-based
Description: as §1, §2
K.a., Klebsiella aerogenes 1552 E;

Escherichia coli 1507 E = assay: MIC, in vitro agar dilution method; assay type: cell-based; settings: E.c.4, Escherichia coli 1507 E
Description: as §1, §2
E.c.4, Escherichia coli 1507 E;

[5] = system: Pseudomonas aeruginosa 1592 E; assay: MIC, in vitro agar dilution method; assay type: cell-based
Description: as §1, §2
P.a.2, Pseudomonas aeruginosa 1592 E;

Escherichia coli TEM = assay: MIC, in vitro agar dilution method; assay type: cell-based; settings: E.c.3, Escherichia coli TEM
Description: as §1, §2
E.c.3, Escherichia coli TEM;

E.c.5 = assay: MIC, in vitro agar dilution method; assay type: cell-based; settings: Escherichia coli, E.c.5 (strain not defined)
Description: as §1

Escherichia coli DC0 = assay: MIC, in vitro agar dilution method; assay type: cell-based; settings: E.c.2, Escherichia coli DC0
Description: as §1, §2
E.c.2, Escherichia coli DC0;

[6] = system: Staphylococcus aureus 285; assay: MIC, in vitro agar dilution method; assay type: cell-based
Description: as §1, §2
E.c. TEM, S.a. 2, Staphylococcus aureus 285;

Streptococcus faecium MD = assay: MIC, in vitro agar dilution method; assay type: cell-based; settings: Enterococcus faecium
Description: as §1, §2
S.f., Streptococcus faecium MD;

[7] = system: Pseudomonas aeruginosa 1771 M; assay: MIC, in vitro agar dilution method; assay type: cell-based
Description: as §1, §2
P.a.4, Pseudomonas aeruginosa 1771 M;

Escherichia coli O55 = assay: MIC, in vitro agar dilution method; assay type: cell-based; settings: E.c.1, Escherichia coli O55
Description: as §1, §2
E.c.1, Escherichia coli O55;

[8] = system: Pseudomonas eruginosa 1771; assay: MIC, in vitro agar dilution method; assay type: cell-based; settings: P.a.3, Pseudomonas eruginosa 1771
Description: as §1, §2
P.a.3, Pseudomonas eruginosa 1771;

[9] = system: Klebsiella oxytoca 1082 E; assay: MIC, in vitro agar dilution method; assay type: cell-based
Description: as §1, §2
K.o., Klebsiella oxytoca 1082 E;

[10] = system: Enterobacter cloacae 1321 E; assay: MIC, in vitro agar dilution method; assay type: cell-based
Description: as §1, §2
En.c.2, Enterobacter cloacae 1321 E.

[11] = system: Staphlococcus aureus SG 511; assay: MIC, in vitro agar dilution method; assay type: cell-based
Description: as §1, §2
S.a.1, Staphlococcus aureus SG 511;

[12] = system: Enterobacter cloacae P 99; assay: MIC, in vitro agar dilution method; assay type: cell-based; settings: for MIC: Enterobacter cloacae, P99
Description: as §1, §2
En.c.1, Enterobacter cloacae P 99;

[13] = system: Streptococcus pyogenes A 77; assay: MIC, in vitro agar dilution method; assay type: cell-based; settings: A77
Description: as §1, §2
S.p.2, Streptococcus pyogenes A 77;

[14] = S.t., Salmonella typhimurium, agar dilution, read-out: MIC
[15] = S.p.1, Streptococcus pyogenes 308 A, agar dilution, read-out: MIC
[16] = S.a.3, Staphylococcus aureus 503, agar dilution, read-out: MIC
[17] = P.a.1, Pseudomonas aeruginosa 9027, agar dilution, read-out: MIC
[18] = K.a., Klebsiella aerogenes 1552 E, agar dilution, read-out: MIC
[19] = P.a.2, Pseudomonas aeruginosa 1592 E, agar dilution, read-out: MIC
[20] = S.a.2, Staphylococcus aureus 285, agar dilution, read-out: MIC
[21] = S.f., Streptococcus faecium MD, agar dilution, read-out: MIC
[22] = P.a.4, Pseudomonas aeruginosa 1771 M, agar dilution, read-out: MIC
[23] = K.o., Klebsiella oxytoca 1082 E, agar dilution, read-out: MIC
[24] = En.c.2, Enterobacter cloacae 1321 E, agar dilution, read-out: MIC
[25] = S.a.1, Staphlococcus aureus SG 511, agar dilution, read-out: MIC
[26] = S.p.2, Streptococcus pyogenes A 77, agar dilution, read-out: MIC

| SMILES | MIC (Escherichia coli 1507 E) | MIC (Escherichia coli TEM) | MIC (E.c.5) | MIC (Escherichia coli DC0) | MIC (Escherichia coli O55) | MIC [8] | MIC [12] | MIC (Salmonella typhimurium; [14]) | MIC [1, 15] | MIC [2, 16] | MIC [3, 17] | MIC [4, 18] | MIC [5, 19] | MIC [6, 20] | MIC (Streptococcus faecium MD; [21]) | MIC [7, 22] | MIC [9, 23] | MIC [10, 24] | MIC [11, 25] | MIC [13, 26] | further results |
| --- | --- | --- | --- | --- | --- | --- | --- | --- | --- | --- | --- | --- | --- | --- | --- | --- | --- | --- | --- | --- | --- |
| CO/N=C(\C(=O)N[C@@H]1C(=O)N2C(C(=O)[O-])=C(C[N+]3(C)CCCC3)CS[C@H]12)c1csc(N)n1 [Cefepime, cefepime] |  |  |  |  |  |  |  |  |  |  |  |  |  |  |  |  |  |  |  |  | anti-pseudomonal activity (anti-pseudomonal): high anti-pseudomonal activity; activity against staphylococci (staphylococci): improved anti-staphylococcaI activity |
| CC(C)(O/N=C(\C(=O)N[C@@H]1C(=O)N2C(C(=O)[O-])=C(C[n+]3ccccc3)CS[C@H]12)c1csc(N)n1)C(=O)O [Ceftazidime, ceftazidime, reference compound] | 0.2 µg/mL (≈ 0.366 µM) | 0.098 µg/mL (≈ 0.179 µM) | 0.2 µg/mL (≈ 0.366 µM) | 0.098 µg/mL (≈ 0.179 µM) | 0.098 µg/mL (≈ 0.179 µM) | 0.39 µg/mL (≈ 0.714 µM) | 100 µg/mL (≈ 183 µM) |  |  |  |  |  |  |  |  |  |  |  |  |  | MIC (Salmonella typhimurium; TYPHIMURIUM): 0.2 µg/mL (≈ 0.366 µM); MIC ([1]; Streptococcus pyogenes, 308A): 0.098 µg/mL (≈ 0.179 µM); activity against Enterobacter cloacae P99 (Enterobacter cloacae P99): less active against staphylococci and Enterobacter cloacae P99; MIC ([2]; Staphylococcus aureus, 503): 3.13 µg/mL (≈ 5.73 µM); MIC ([3]; Pseudomonas aeruginosa, 9027): 3.13 µg/mL (≈ 5.73 µM); MIC ([4]; Klebsiella aerogenes, 1552E): 0.098 µg/mL (≈ 0.179 µM); MIC ([5]; Pseudomonas aeruginosa, 1592E): 0.78 µg/mL (≈ 1.43 µM); MIC ([6]; Staphylococcus aureus, 285): 12.5 µg/mL (≈ 22.9 µM); anti-pseudomonal activity (anti-pseudomonal): potent anti-pseudomonal activity; MIC (Streptococcus faecium MD): 100 µg/mL (≈ 183 µM); MIC ([7]; Pseudomonas aeruginosa, 1771M): 0.098 µg/mL (≈ 0.179 µM); MIC ([9]; Klebsiella oxytoca, 1082E): 0.39 µg/mL (≈ 0.714 µM); MIC ([10]; Enterobacter cloacae, 1321E): 0.025 µg/mL (≈ 0.0457 µM); MIC [11]: 12.5 µg/mL (≈ 22.9 µM); activity against Enterobacter cloacae P99 ([12]; in words): resistant to ceftazidime; MIC ([13]; Streptococcus pyogenes): 0.049 µg/mL (≈ 0.0896 µM); activity against staphylococci (staphylococci): less active against staphylococci |
| CO/N=C(\C(=O)N[C@@H]1C(=O)N2C(C(=O)[O-])=C(/C=C/C[N+]3(C)CC[C@@H](O)[C@H](O)C3)CS[C@H]12)c1csc(N)n1 (relative stereo) [1-f, 7β-[2-(2-Aminothiazol-4-yl)-(Z)-2-methoxyiminoacetamido]-3-[(E)-3-(3,4-trans-dihydroxy-1-methyl-1-piperidinio)-1-propen-1-yl]-3-cephem-4-carboxylate] | 0.049 µg/mL (≈ 0.0887 µM) | 0.025 µg/mL (≈ 0.0452 µM) | 0.049 µg/mL (≈ 0.0887 µM) | 0.049 µg/mL (≈ 0.0887 µM) | 0.025 µg/mL (≈ 0.0452 µM) | 0.78 µg/mL (≈ 1.41 µM) | 12.5 µg/mL (≈ 22.6 µM) | 0.025 µg/mL (≈ 0.0452 µM) | 0.013 µg/mL (≈ 0.0235 µM) | 0.2 µg/mL (≈ 0.362 µM) | 3.13 µg/mL (≈ 5.66 µM) | 0.025 µg/mL (≈ 0.0452 µM) | 1.56 µg/mL (≈ 2.82 µM) | 0.78 µg/mL (≈ 1.41 µM) | 50 µg/mL (≈ 90.5 µM) | 0.098 µg/mL (≈ 0.177 µM) | 3.13 µg/mL (≈ 5.66 µM) | 0.025 µg/mL (≈ 0.0452 µM) | 0.39 µg/mL (≈ 0.706 µM) | 0.013 µg/mL (≈ 0.0235 µM) |  |
| CO/N=C(\C(=O)N[C@@H]1C(=O)N2C(C(=O)[O-])=C(/C=C/C[N+]3(C)CCC(O)CC3)CS[C@H]12)c1csc(N)n1 (stereo partly drawn) [1-g, 7β-[2-(2-Aminothiazol-4-yl)-(Z)-2-methoxyiminoacetamido]-3-[(E)-3-(4-hydroxy-1-methyl-1-piperidinio)-1-propen-1-yl]-3-cephem-4-carboxylate] | 0.098 µg/mL (≈ 0.183 µM) | 0.049 µg/mL (≈ 0.0913 µM) | 0.049 µg/mL (≈ 0.0913 µM) | 0.049 µg/mL (≈ 0.0913 µM) | 0.025 µg/mL (≈ 0.0466 µM) | 1.56 µg/mL (≈ 2.91 µM) | 3.13 µg/mL (≈ 5.83 µM) | 0.049 µg/mL (≈ 0.0913 µM) | 0.013 µg/mL (≈ 0.0242 µM) | 0.2 µg/mL (≈ 0.373 µM) | 6.25 µg/mL (≈ 11.6 µM) | 0.025 µg/mL (≈ 0.0466 µM) | 3.13 µg/mL (≈ 5.83 µM) | 0.78 µg/mL (≈ 1.45 µM) | 50 µg/mL (≈ 93.2 µM) | 0.2 µg/mL (≈ 0.373 µM) | 3.13 µg/mL (≈ 5.83 µM) | 0.025 µg/mL (≈ 0.0466 µM) | 0.39 µg/mL (≈ 0.727 µM) | 0.013 µg/mL (≈ 0.0242 µM) |  |
| CON=C(C(=O)NC1C(=O)N2C(C(=O)[O-])=C(C=CC[N+]3(C)C4CCC3CC(O)C4)CSC12)c1csc(N)n1 (stereo not drawn) [1-i, 7β-[2-(2-Aminothiazol-4-yl)-(Z)-2-methoxyiminoacetamido]-3-[(E)-3-tropinio-1-propen-1-yl]-3-cephem-4-carboxylate] | 0.098 µg/mL (≈ 0.174 µM) | 0.025 µg/mL (≈ 0.0444 µM) | 0.049 µg/mL (≈ 0.0871 µM) | 0.049 µg/mL (≈ 0.0871 µM) | 0.025 µg/mL (≈ 0.0444 µM) | 1.56 µg/mL (≈ 2.77 µM) | 6.25 µg/mL (≈ 11.1 µM) | 0.049 µg/mL (≈ 0.0871 µM) | 0.013 µg/mL (≈ 0.0231 µM) | 0.2 µg/mL (≈ 0.355 µM) | 6.25 µg/mL (≈ 11.1 µM) | 0.025 µg/mL (≈ 0.0444 µM) | 3.13 µg/mL (≈ 5.56 µM) | 0.78 µg/mL (≈ 1.39 µM) | 50 µg/mL (≈ 88.9 µM) | 0.2 µg/mL (≈ 0.355 µM) | 1.56 µg/mL (≈ 2.77 µM) | 0.025 µg/mL (≈ 0.0444 µM) | 0.39 µg/mL (≈ 0.693 µM) | 0.013 µg/mL (≈ 0.0231 µM) |  |
| CO/N=C(\C(=O)N[C@@H]1C(=O)N2C(C(=O)[O-])=C(/C=C/C[N+]3(C)C[C@H](O)[C@@H](O)C3)CS[C@H]12)c1csc(N)n1 [1-b, 7β-[2-(2-Aminothiazol-4-yl)-(Z)-2-methoxyiminoacetamido]-3-[(E)-3-(3S,4S-dihydroxy-1-methyl-1-pyrrolidinio)-1-propen-1-yl]-3-cephem-4-carboxylate] | 0.049 µg/mL (≈ 0.091 µM) | 0.025 µg/mL (≈ 0.0464 µM) | 0.049 µg/mL (≈ 0.091 µM) | 0.049 µg/mL (≈ 0.091 µM) | 0.025 µg/mL (≈ 0.0464 µM) | 1.56 µg/mL (≈ 2.9 µM) | 3.13 µg/mL (≈ 5.81 µM) | 0.025 µg/mL (≈ 0.0464 µM) | 0.013 µg/mL (≈ 0.0241 µM) | 0.2 µg/mL (≈ 0.371 µM) | 3.13 µg/mL (≈ 5.81 µM) | 0.025 µg/mL (≈ 0.0464 µM) | 1.56 µg/mL (≈ 2.9 µM) | 0.78 µg/mL (≈ 1.45 µM) | 50 µg/mL (≈ 92.8 µM) | 0.098 µg/mL (≈ 0.182 µM) | 0.78 µg/mL (≈ 1.45 µM) | 0.013 µg/mL (≈ 0.0241 µM) | 0.39 µg/mL (≈ 0.724 µM) | 0.007 µg/mL (≈ 0.013 µM) |  |

From patent US5675003A, “3-ammoniopropenyl cephalosporin compounds as antibacterial agents” (Korea Institute of Science and Technology, priority 1995, dated 1997)
